Patent US20080009418A1, “Selective Inhibitors” (Alchemia LTD., priority 2004, published 2008)

How the values were obtained:
Human δ-opioid (DOP) = target: T1, Human δ-opioid (DOP) (Homo sapiens, UniProt P41143); assay: Radioligand binding, human δ-opioid (DOP) membranes, FlashPlate, [3H]-Bremazocine; settings: compound at 10 μM; for A1 radioligand binding inhibition: human δ-opioid (DOP) membranes
T1 construct: purchased Perkin Elmer Biosignal
Outline: (§1)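 Cloned human receptor membranes were coated onto FlashPlate wells and incubated with radioligand and compound (added from a 0.5 mM DMSO daughter plate) for 1 hour at room temperature in the dark. Scintillation counting gave percent inhibition, with DMSO defining total and reference ligand defining non-specific binding.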

Human melanocortin (MC5) = target: T2, Human melanocortin (MC5) (Homo sapiens, UniProt P33032); assay: Radioligand binding, human melanocortin MC5 membranes, FlashPlate, [125I]-NDP-αMSH; settings: compound at 10 μM; for A5 radioligand binding inhibition: human melanocortin MC5 membranes
T2 construct: purchased Perkin Elmer Biosignal
T2 sequence (P33032 whole entry): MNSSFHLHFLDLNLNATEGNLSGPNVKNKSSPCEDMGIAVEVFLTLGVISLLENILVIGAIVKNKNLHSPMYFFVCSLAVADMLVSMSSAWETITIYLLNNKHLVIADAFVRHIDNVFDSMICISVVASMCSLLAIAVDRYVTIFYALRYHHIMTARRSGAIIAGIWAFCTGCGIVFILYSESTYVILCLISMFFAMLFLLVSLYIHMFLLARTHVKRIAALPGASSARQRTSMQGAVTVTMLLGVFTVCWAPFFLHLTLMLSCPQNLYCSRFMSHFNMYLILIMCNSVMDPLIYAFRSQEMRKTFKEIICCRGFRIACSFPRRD
Outline: as §1

Human Melanocortin (MC4) = target: T3, Human Melanocortin (MC4) (Homo sapiens, UniProt P32245); assay: Radioligand binding, human melanocortin MC4 membranes, FlashPlate, [125I]-NDP-αMSH; settings: compound at 10 μM; for A4 radioligand binding inhibition: human melanocortin MC4 membranes
T3 construct: purchased Perkin Elmer Biosignal
T3 sequence (P32245 whole entry): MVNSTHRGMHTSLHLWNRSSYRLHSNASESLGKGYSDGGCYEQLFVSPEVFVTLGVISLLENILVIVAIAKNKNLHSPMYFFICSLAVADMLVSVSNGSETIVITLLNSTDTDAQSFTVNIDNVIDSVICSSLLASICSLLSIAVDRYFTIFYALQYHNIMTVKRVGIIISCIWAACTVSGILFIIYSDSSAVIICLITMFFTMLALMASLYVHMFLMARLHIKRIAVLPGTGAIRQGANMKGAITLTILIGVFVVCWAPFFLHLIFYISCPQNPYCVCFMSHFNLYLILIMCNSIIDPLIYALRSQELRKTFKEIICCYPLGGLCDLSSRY
Outline: as §1

Human opioid (ORL1) = target: T4, Human opioid (ORL1) (Homo sapiens, UniProt P41146); assay: Radioligand binding, human opioid ORL1 membranes, FlashPlate, [125I]-Nociceptin; settings: compound at 10 μM
T4 construct: purchased Perkin Elmer Biosignal
T4 sequence (P41146 whole entry): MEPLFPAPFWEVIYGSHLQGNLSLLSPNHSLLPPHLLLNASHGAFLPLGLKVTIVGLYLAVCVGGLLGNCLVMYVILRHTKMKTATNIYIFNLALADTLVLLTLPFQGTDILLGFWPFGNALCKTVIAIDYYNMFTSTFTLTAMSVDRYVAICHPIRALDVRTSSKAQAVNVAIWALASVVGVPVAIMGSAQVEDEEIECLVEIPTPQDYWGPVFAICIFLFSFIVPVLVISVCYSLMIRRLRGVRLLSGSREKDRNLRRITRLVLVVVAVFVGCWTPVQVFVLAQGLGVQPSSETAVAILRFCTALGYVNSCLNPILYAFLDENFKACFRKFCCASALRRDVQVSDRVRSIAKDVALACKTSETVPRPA
Outline: as §1

Mouse urotensin (mUR2) = target: T5, Mouse urotensin (mUR2) (Mus musculus, UniProt Q8VIH9); assay: Radioligand binding, mouse urotensin mUR2 membranes, FlashPlate, [125I]-Urotensin II; settings: compound at 10 μM; for A11 radioligand binding inhibition: mouse urotensin mUR2 membranes
T5 construct: purchased Perkin Elmer Biosignal
T5 sequence (Q8VIH9 1-385): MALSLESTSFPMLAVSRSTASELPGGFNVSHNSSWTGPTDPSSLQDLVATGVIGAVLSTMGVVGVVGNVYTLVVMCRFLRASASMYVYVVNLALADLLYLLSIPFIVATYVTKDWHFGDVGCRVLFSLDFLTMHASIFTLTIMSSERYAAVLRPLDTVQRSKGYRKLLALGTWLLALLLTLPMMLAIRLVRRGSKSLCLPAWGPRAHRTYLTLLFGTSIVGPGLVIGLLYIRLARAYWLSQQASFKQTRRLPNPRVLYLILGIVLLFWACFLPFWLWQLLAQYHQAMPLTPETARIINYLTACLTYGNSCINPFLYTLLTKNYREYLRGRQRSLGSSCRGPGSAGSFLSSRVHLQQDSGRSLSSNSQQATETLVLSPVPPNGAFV
Outline: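 Cloned mouse urotensin (mUR2) receptor membranes from Perkin Elmer Biosignal were immobilized in FlashPlate microplates using a proprietary coating. Each well got 19.5 μl buffer, then 0.5 μl of DMSO, reference ligand, or compound. Adding 5 μl of [125I]-Urotensin II, diluted to 5× final concentration in binding buffer, started binding. Plates were sealed with TopSeal-A and incubated 1 hour at room temperature in the dark. Wells were counted for 30 seconds each on a TopCount after a 60-second delay, and percentage inhibition was calculated.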

[1] = target: T6, Human neuropeptide Y (NPY-Y1) (Homo sapiens, UniProt P25929); assay: Radioligand binding, human neuropeptide Y NPY-Y1 membranes, FlashPlate, [125I]-PYY; settings: compound at 10 μM
T6 construct: purchased Perkin Elmer Biosignal
T6 sequence (P25929 1-384): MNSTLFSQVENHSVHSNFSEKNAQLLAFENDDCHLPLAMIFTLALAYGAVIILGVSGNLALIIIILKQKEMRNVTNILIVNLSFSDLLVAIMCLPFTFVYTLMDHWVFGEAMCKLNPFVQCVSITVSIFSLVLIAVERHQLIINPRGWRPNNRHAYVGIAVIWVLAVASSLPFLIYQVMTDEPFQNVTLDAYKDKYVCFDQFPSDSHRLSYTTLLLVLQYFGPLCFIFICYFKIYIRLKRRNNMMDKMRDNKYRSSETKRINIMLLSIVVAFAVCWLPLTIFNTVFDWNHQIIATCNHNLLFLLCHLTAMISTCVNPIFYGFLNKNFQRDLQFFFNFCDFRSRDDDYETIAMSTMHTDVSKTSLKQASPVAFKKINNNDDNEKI
Outline: as §1

Human κ-Opioid (KOP) = target: T7, Human κ-Opioid (KOP) (Homo sapiens, UniProt P41145); assay: Radioligand binding, human κ-opioid (KOP) membranes, filtration, [3H]-Diprenorphine; settings: compound at 10 μM; for A2 radioligand binding inhibition: human κ-opioid (KOP) membranes
T7 construct: purchased Perkin Elmer Biosignal
T7 sequence (P41145 whole entry): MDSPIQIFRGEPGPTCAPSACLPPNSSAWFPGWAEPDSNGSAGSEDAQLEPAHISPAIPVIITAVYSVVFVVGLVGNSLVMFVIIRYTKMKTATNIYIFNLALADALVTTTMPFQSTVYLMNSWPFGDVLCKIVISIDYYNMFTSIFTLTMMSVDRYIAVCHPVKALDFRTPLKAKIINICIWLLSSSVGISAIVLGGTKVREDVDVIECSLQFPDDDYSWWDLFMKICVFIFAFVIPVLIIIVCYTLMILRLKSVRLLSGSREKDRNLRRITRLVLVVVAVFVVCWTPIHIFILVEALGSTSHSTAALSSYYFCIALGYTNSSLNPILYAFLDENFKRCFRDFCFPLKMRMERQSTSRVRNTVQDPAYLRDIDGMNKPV
Outline: (§2)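 Percent inhibition of radioligand binding measured on recombinant human membranes: NK1 with [125I]-Substance P, KOP with [3H]-Diprenorphine. Incubation 1 h at room temperature, then harvest onto 0.3% PEI-soaked filters, cold Tris-HCl pH 7.4 washes and scintillation counting; non-specific binding from reference ligand wells.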

Human Melanocortin (MC3) = target: T8, Human Melanocortin (MC3) (Homo sapiens, UniProt P41968); assay: Radioligand binding, human melanocortin MC3 membranes, FlashPlate, [125I]-NDP-αMSH; settings: compound at 10 μM; for A3 radioligand binding inhibition: human melanocortin MC3 membranes
T8 construct: purchased Perkin Elmer Biosignal
T8 sequence (P41968 whole entry): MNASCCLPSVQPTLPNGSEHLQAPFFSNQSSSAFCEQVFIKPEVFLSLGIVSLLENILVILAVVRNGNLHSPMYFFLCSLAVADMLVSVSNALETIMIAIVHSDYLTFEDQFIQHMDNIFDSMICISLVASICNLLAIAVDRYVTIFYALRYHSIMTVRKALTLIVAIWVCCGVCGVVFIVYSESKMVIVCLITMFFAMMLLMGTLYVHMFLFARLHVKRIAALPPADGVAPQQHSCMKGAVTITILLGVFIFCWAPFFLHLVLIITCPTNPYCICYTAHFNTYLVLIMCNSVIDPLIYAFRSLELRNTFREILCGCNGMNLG
Outline: as §1

[2] = target: T9, Human melanin-concentrating hormone (MCH1) (Homo sapiens, UniProt Q99705); assay: Radioligand binding, human melanin-concentrating hormone MCH1 membranes, FlashPlate, [125I]-S36057; settings: compound at 10 μM; for A6 radioligand binding inhibition: human MCH1 membranes
T9 construct: purchased Perkin Elmer Biosignal
T9 sequence (Q99705 whole entry): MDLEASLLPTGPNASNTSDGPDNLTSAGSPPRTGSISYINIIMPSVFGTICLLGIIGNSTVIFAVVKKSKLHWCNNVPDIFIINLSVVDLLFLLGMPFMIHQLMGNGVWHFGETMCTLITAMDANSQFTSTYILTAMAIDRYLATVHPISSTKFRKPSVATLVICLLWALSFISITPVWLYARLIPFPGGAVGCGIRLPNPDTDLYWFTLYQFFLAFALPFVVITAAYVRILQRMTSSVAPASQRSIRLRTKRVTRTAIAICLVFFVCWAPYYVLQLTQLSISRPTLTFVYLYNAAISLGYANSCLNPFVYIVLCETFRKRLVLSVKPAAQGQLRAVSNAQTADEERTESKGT
Outline: as §1

Human μ-opioid (MOP) = target: T10, Human μ-opioid (MOP) (Homo sapiens, UniProt P35372); assay: Radioligand binding, human μ-opioid (MOP) membranes, FlashPlate, [3H]-Naloxone; settings: compound at 10 μM; for A7 radioligand binding inhibition: human μ-opioid (MOP) membranes
T10 construct: purchased Perkin Elmer Biosignal
T10 sequence (P35372 whole entry): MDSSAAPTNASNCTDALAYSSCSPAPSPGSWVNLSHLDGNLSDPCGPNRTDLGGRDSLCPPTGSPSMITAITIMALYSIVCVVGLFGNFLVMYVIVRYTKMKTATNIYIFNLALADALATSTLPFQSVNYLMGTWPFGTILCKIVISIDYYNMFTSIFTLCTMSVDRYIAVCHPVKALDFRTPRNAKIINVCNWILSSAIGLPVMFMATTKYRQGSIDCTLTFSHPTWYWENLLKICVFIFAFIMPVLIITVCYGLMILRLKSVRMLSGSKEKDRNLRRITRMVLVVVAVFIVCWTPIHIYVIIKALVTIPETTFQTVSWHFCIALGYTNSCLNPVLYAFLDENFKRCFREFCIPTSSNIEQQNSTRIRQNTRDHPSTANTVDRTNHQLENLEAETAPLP
Outline: as §1

Human neurokinin (NK1) = target: T11, Human neurokinin (NK1) (Homo sapiens, UniProt P25103); assay: Radioligand binding, human neurokinin NK1 membranes, filtration, [125I]-Substance P; settings: compound at 10 μM; for A8 radioligand binding inhibition: human neurokinin NK1 membranes
T11 construct: purchased Perkin Elmer Biosignal
T11 sequence (P25103 whole entry): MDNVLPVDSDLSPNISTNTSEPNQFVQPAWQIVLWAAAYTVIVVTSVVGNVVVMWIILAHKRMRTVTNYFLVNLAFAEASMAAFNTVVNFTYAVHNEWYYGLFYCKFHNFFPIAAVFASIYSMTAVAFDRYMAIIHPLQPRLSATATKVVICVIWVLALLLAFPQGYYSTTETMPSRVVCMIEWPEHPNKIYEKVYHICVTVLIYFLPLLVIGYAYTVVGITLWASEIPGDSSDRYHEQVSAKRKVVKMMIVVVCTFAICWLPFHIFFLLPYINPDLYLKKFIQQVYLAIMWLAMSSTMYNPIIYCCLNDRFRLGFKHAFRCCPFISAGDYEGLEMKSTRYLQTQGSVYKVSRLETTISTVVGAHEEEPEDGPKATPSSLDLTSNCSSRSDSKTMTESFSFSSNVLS
Outline: as §2

T1 sequence (P41143 whole entry): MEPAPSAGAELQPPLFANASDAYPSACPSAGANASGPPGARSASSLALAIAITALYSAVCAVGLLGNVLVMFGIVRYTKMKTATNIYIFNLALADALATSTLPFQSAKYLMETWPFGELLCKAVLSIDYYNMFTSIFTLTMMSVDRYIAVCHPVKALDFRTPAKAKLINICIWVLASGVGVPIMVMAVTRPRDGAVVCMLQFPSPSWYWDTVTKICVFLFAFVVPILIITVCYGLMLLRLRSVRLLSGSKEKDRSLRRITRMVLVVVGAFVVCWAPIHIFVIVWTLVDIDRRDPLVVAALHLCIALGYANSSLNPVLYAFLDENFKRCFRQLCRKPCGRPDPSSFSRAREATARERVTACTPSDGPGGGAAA

## CSC1O[C@H](COCc2ccc3ccccc3c2)[C@@H](O)[C@@H](OCc2ccc(-c3ccccc3)cc2)[C@H]1NC(=O)CCNC(=N)N (stereo partly shown) [compound 298]
Human δ-opioid (DOP); [3H]-Bremazocine
  A1: inhibition of radioligand binding, human δ-opioid (DOP): − (“−” indicates less than 50% inhibition at 10 μM)
Human melanocortin (MC5); [125I]-NDP-αMSH
  A5: inhibition of radioligand binding, human melanocortin (MC5): + (“+” indicates greater than 50% inhibition at 10 μM)
Human Melanocortin (MC4); [125I]-NDP-αMSH
  A4: inhibition of radioligand binding, human melanocortin (MC4): − (“−” indicates less than 50% inhibition at 10 μM)
Human opioid (ORL1); [125I]-Nociceptin
  A10: inhibition of radioligand binding, human opioid (ORL1): − (“−” indicates less than 50% inhibition at 10 μM)
Mouse urotensin (mUR2); [125I]-Urotensin II
  A11: inhibition of radioligand binding, mouse urotensin (mUR2): − (“−” indicates less than 50% inhibition at 10 μM)
[1]; [125I]-PYY
  A9: inhibition of radioligand binding, human neuropeptide Y (NPY-Y1): − (“−” indicates less than 50% inhibition at 10 μM)
Human κ-Opioid (KOP); [3H]-Diprenorphine
  A2: inhibition of radioligand binding, human κ-opioid (KOP): − (“−” indicates less than 50% inhibition at 10 μM)
Human Melanocortin (MC3); [125I]-NDP-αMSH
  A3: inhibition of radioligand binding, human melanocortin (MC3): − (“−” indicates less than 50% inhibition at 10 μM)
[2]; [125I]-S36057
  A6: inhibition of radioligand binding, human melanin-concentrating hormone (MCH1): − (“−” indicates less than 50% inhibition at 10 μM)
Human μ-opioid (MOP); [3H]-Naloxone
  A7: inhibition of radioligand binding, human μ-opioid (MOP): − (“−” indicates less than 50% inhibition at 10 μM)
Human neurokinin (NK1); [125I]-Substance P
  A8: inhibition of radioligand binding, human neurokinin (NK1): + (“+” indicates greater than 50% inhibition at 10 μM)

## NCCC(=O)N[C@H]1C(OCc2ccc3ccccc3c2)O[C@H](COCc2ccc(Cl)cc2)[C@@H](O)[C@@H]1OCc1ccc2ccccc2c1 (stereo partly shown) [compound 447]
Human δ-opioid (DOP); [3H]-Bremazocine, human DOP membranes
  A1: inhibition of radioligand binding: − (“−” indicates less than 50% inhibition at 10 μM)
Human melanocortin (MC5); [125I]-NDP-αMSH, human MC5 membranes
  A5: inhibition of radioligand binding: + (“+” indicates greater than 50% inhibition at 10 μM)
Human Melanocortin (MC4); [125I]-NDP-αMSH, human MC4 membranes, 10 µM
  A4: inhibition of radioligand binding: + (“+” indicates greater than 50% inhibition at 10 μM)
Human opioid (ORL1); [125I]-Nociceptin, human ORL1 membranes
  A10: inhibition of radioligand binding: − (“−” indicates less than 50% inhibition at 10 μM)
Mouse urotensin (mUR2); [125I]-Urotensin II, mouse mUR2 membranes
  A11: inhibition of radioligand binding: − (“−” indicates less than 50% inhibition at 10 μM)
[1]; [125I]-PYY, human NPY-Y1 membranes
  A9: inhibition of radioligand binding: − (“−” indicates less than 50% inhibition at 10 μM)
Human κ-Opioid (KOP); [3H]-Diprenorphine, human KOP membranes
  A2: inhibition of radioligand binding: − (“−” indicates less than 50% inhibition at 10 μM)
Human Melanocortin (MC3); [125I]-NDP-αMSH, human MC3 membranes, 10 µM
  A3: inhibition of radioligand binding: + (“+” indicates greater than 50% inhibition at 10 μM)
[2]; [125I]-S36057, human MCH1 membranes, 10 µM
  A6: inhibition of radioligand binding: + (“+” indicates greater than 50% inhibition at 10 μM)
Human μ-opioid (MOP); [3H]-Naloxone, human MOP membranes
  A7: inhibition of radioligand binding: − (“−” indicates less than 50% inhibition at 10 μM)
Human neurokinin (NK1); [125I]-Substance P, human NK1 membranes
  A8: inhibition of radioligand binding: + (“+” indicates greater than 50% inhibition at 10 μM)

## COC[C@H]1OC(OCc2ccc(-c3ccccc3)cc2)[C@H](NC(=O)CCCNC(=N)N)[C@@H](OCc2ccccc2)[C@@H]1O (stereo partly shown) [compound 9]
Human δ-opioid (DOP)
  A1 radioligand binding inhibition: − (“−” indicates less than 50% inhibition at 10 μM)
Human melanocortin (MC5)
  A5 radioligand binding inhibition: − (“−” indicates less than 50% inhibition at 10 μM)
Human Melanocortin (MC4)
  A4 radioligand binding inhibition: − (“−” indicates less than 50% inhibition at 10 μM)
Human opioid (ORL1); human ORL1 membranes
  A10 radioligand binding inhibition: − (“−” indicates less than 50% inhibition at 10 μM)
Mouse urotensin (mUR2)
  A11 radioligand binding inhibition: − (“−” indicates less than 50% inhibition at 10 μM)
[1]; human NPY-Y1 membranes
  A9 radioligand binding inhibition: − (“−” indicates less than 50% inhibition at 10 μM)
Human κ-Opioid (KOP)
  A2 radioligand binding inhibition: − (“−” indicates less than 50% inhibition at 10 μM)
Human Melanocortin (MC3)
  A3 radioligand binding inhibition: − (“−” indicates less than 50% inhibition at 10 μM)
[2]; 10 µM
  A6 radioligand binding inhibition: − (“−” indicates less than 50% inhibition at 10 μM)
Human μ-opioid (MOP)
  A7 radioligand binding inhibition: − (“−” indicates less than 50% inhibition at 10 μM)
Human neurokinin (NK1)
  A8 radioligand binding inhibition: + (“+” indicates greater than 50% inhibition at 10 μM)

## COC[C@H]1OC(OCc2ccc(Cl)cc2)[C@H](NC(=O)CCNC(=N)N)[C@@H](OCc2ccc(-c3ccccc3)cc2)[C@@H]1O (stereo partly shown) [compound 29]
Human δ-opioid (DOP)
  A1 radioligand binding inhibition: − (“−” indicates less than 50% inhibition at 10 μM)
Human melanocortin (MC5)
  A5 radioligand binding inhibition: + (“+” indicates greater than 50% inhibition at 10 μM)
Human Melanocortin (MC4)
  A4 radioligand binding inhibition: + (“+” indicates greater than 50% inhibition at 10 μM)
Human opioid (ORL1); human ORL1 membranes
  A10 radioligand binding inhibition: − (“−” indicates less than 50% inhibition at 10 μM)
Mouse urotensin (mUR2)
  A11 radioligand binding inhibition: − (“−” indicates less than 50% inhibition at 10 μM)
[1]; human NPY-Y1 membranes
  A9 radioligand binding inhibition: − (“−” indicates less than 50% inhibition at 10 μM)
Human κ-Opioid (KOP)
  A2 radioligand binding inhibition: − (“−” indicates less than 50% inhibition at 10 μM)
Human Melanocortin (MC3)
  A3 radioligand binding inhibition: + (“+” indicates greater than 50% inhibition at 10 μM)
[2]
  A6 radioligand binding inhibition: + (“+” indicates greater than 50% inhibition at 10 μM)
Human μ-opioid (MOP)
  A7 radioligand binding inhibition: − (“−” indicates less than 50% inhibition at 10 μM)
Human neurokinin (NK1)
  A8 radioligand binding inhibition: + (“+” indicates greater than 50% inhibition at 10 μM)

## CO[C@H]1[C@H](O)[C@@H](COCc2ccc3ccccc3c2)OC(OCc2ccc3ccccc3c2)[C@@H]1NC(=O)CNC(=N)N (stereo partly shown) [compound 70]
Human δ-opioid (DOP)
  A1 radioligand binding inhibition: − (“−” indicates less than 50% inhibition at 10 μM)
Human melanocortin (MC5)
  A5 radioligand binding inhibition: + (“+” indicates greater than 50% inhibition at 10 μM)
Human Melanocortin (MC4)
  A4 radioligand binding inhibition: + (“+” indicates greater than 50% inhibition at 10 μM)
Human opioid (ORL1); human ORL1 membranes
  A10 radioligand binding inhibition: − (“−” indicates less than 50% inhibition at 10 μM)
Mouse urotensin (mUR2)
  A11 radioligand binding inhibition: − (“−” indicates less than 50% inhibition at 10 μM)
[1]; human NPY-Y1 membranes
  A9 radioligand binding inhibition: − (“−” indicates less than 50% inhibition at 10 μM)
Human κ-Opioid (KOP)
  A2 radioligand binding inhibition: − (“−” indicates less than 50% inhibition at 10 μM)
Human Melanocortin (MC3)
  A3 radioligand binding inhibition: + (“+” indicates greater than 50% inhibition at 10 μM)
[2]
  A6 radioligand binding inhibition: − (“−” indicates less than 50% inhibition at 10 μM)
Human μ-opioid (MOP)
  A7 radioligand binding inhibition: + (“+” indicates greater than 50% inhibition at 10 μM)
Human neurokinin (NK1)
  A8 radioligand binding inhibition: + (“+” indicates greater than 50% inhibition at 10 μM)
